Reference: publication PMC3527451, “A Pilot Randomized, Placebo Controlled, Double Blind Phase I Trial of the Novel SIRT1 Activator SRT2104 in Elderly Volunteers” (PLoS ONE, 2012)

Legend:
[1] = tested on: dog; parameters: method as in SRT2104 Investigator's Brochure; settings: ref SRT2104 Investigator's Brochure, cited from earlier work
[2] = tested on: elderly male and female volunteers; assay: Safety and tolerability, treatment-emergent adverse events in elderly volunteers; type: in vivo, human; settings: for serum creatinine of one subject: 0.5 g/day cohort
Description: This was a phase I, single-center, double-blind, randomized, placebo-controlled, parallel-arm study to assess the safety, tolerability, pharmacokinetic and initial pharmacodynamic properties of SRT2104 (Sirtris Pharmaceuticals, Cambridge, MA, USA) administered for the first time to male and female elderly volunteers 60 to 80 years of age. Volunteers were enrolled between 01 Oct 2009 and 5 Feb 2010. Doses of 0.5 and 2.0 g or matching placebo were administered once daily for 28 consecutive days. The selection of the doses investigated in this study was based upon safety and pharmacokinetic data obtained from a previous clinical study involving SRT2104 [19]. Suitability of participants was defined on the basis of a medical history, physical examination, vital signs, electrocardiogram and laboratory measurements. Subjects were required to have normal fasting glucose levels (4.4 to 6.0 mmol/L) at screening and a body mass index of at least 18 kg/m^2 and no greater than 30 kg/m^2. […] Subjects were deemed ineligible if they participated in any clinical trial with an investigative medicinal product within the past three months prior to the first dose in the current study, had been exposed to more than three new chemical entities within 12 months of enrollment, or used other concomitant medications and herbal products in the previous 3 months that in the opinion of the investigator could interfere with the study procedures or compromise subject safety. Additional exclusions included: women of childbearing potential and non-sterile men, unless they agreed to use acceptable method of contraception; history of alcoholism or drug abuse (including a positive pre-study drug/alcohol test at screening); use of tobacco or nicotine products; history of complications when donating blood or known relative inaccessibility of veins for venipuncture; donation of blood within three months of enrolment; history of significant drug or other allergies. Participants were asked to maintain their usual level of physical activity for the duration of the study.
At every visit (including at screening and follow-up), blood and urine samples were collected for clinical laboratory assessments (general blood biochemistry, full blood count, coagulation parameters and urinalysis). On the same days, physical examination, vital signs (resting pulse rate, respiration rate, temperature, and blood pressure readings), pre- and post-dose 12-lead ECG and a review of adverse events (AE) and any medications received were also performed. Safety evaluations were based on the incidence, severity and type of AEs and clinically significant changes from baseline in physical examination findings, vital signs or clinical laboratory results.

[3] = 28 days continuous administration

Structure (SMILES): Cc1nc(-c2cccnc2)sc1C(=O)Nc1ccccc1-c1cn2c(CN3CCOCC3)csc2n1 [SRT2104]
- tolerability ([1]; dog, up to 2.0 g/kg for 28 days): well tolerated at all doses
- increase in indirect bilirubin ([1]; female dogs, 2.0 g/kg/day group): < 2 X
- NOAEL ([1]; male and female dogs, 28 days): 1000 mg/kg
- safety and tolerability ([2]; 0.5 and 2.0 g/day for 28 days): generally safe and well tolerated
- Abdominal distension, number of subjects ([2]; 0.5 g/day (n = 8)): 1
- Abdominal distension, percent of subjects ([2]; 0.5 g/day (n = 8)): (13%)
- Abdominal pain lower, number of subjects ([2]; 0.5 g/day (n = 8)): 1
- Abdominal pain lower, percent of subjects ([2]; 0.5 g/day (n = 8)): (13%)
- Any adverse event, percent of subjects ([2]; 0.5 g/day (n = 8)): (100%)
- Application site haematoma, number of subjects ([2]; 0.5 g/day (n = 8)): 1
- Application site haematoma, percent of subjects ([2]; 0.5 g/day (n = 8)): (13%)
- Arthralgia, number of subjects ([2]; 0.5 g/day (n = 8)): 1
- Arthralgia, percent of subjects ([2]; 0.5 g/day (n = 8)): (13%)
- Back pain, number of subjects ([2]; 0.5 g/day (n = 8)): 1
- Back pain, percent of subjects ([2]; 0.5 g/day (n = 8)): (13%)
- Blood creatinine increased, number of subjects ([2]; 0.5 g/day (n = 8)): 1
- Blood creatinine increased, percent of subjects ([2]; 0.5 g/day (n = 8)): (13%)
- Constipation, number of subjects ([2]; 0.5 g/day (n = 8)): 0
- Cough, number of subjects ([2]; 0.5 g/day (n = 8)): 0
- Decreased Appetite, number of subjects ([2]; 0.5 g/day (n = 8)): 1
- Decreased Appetite, percent of subjects ([2]; 0.5 g/day (n = 8)): (13%)
- Diarrhoea, number of subjects ([2]; 0.5 g/day (n = 8)): 1
- Diarrhoea, percent of subjects ([2]; 0.5 g/day (n = 8)): (13%)
- Dizziness, number of subjects ([2]; 0.5 g/day (n = 8)): 0
- Dry eye, number of subjects ([2]; 0.5 g/day (n = 8)): 0
- Dysphonia, number of subjects ([2]; 0.5 g/day (n = 8)): 0
- Epistaxis, number of subjects ([2]; 0.5 g/day (n = 8)): 0
- Erythema, number of subjects ([2]; 0.5 g/day (n = 8)): 1
- Erythema, percent of subjects ([2]; 0.5 g/day (n = 8)): (13%)
- Eye pain, number of subjects ([2]; 0.5 g/day (n = 8)): 0
- Fall, number of subjects ([2]; 0.5 g/day (n = 8)): 0
- Fatigue, number of subjects ([2]; 0.5 g/day (n = 8)): 0
- Headache, number of subjects ([2]; 0.5 g/day (n = 8)): 5
- Headache, percent of subjects ([2]; 0.5 g/day (n = 8)): (63%)
- Insomnia, number of subjects ([2]; 0.5 g/day (n = 8)): 1
- Insomnia, percent of subjects ([2]; 0.5 g/day (n = 8)): (13%)
- Joint stiffness, number of subjects ([2]; 0.5 g/day (n = 8)): 0
- Lethargy, number of subjects ([2]; 0.5 g/day (n = 8)): 1
- Lethargy, percent of subjects ([2]; 0.5 g/day (n = 8)): (13%)
- Limb injury, number of subjects ([2]; 0.5 g/day (n = 8)): 0
- Mass, number of subjects ([2]; 0.5 g/day (n = 8)): 0
- Migraine, number of subjects ([2]; 0.5 g/day (n = 8)): 1
- Migraine, percent of subjects ([2]; 0.5 g/day (n = 8)): (13%)
- Muscle spasms, number of subjects ([2]; 0.5 g/day (n = 8)): 0
- Muscular weakness, number of subjects ([2]; 0.5 g/day (n = 8)): 0
- Nasopharyngitis, number of subjects ([2]; 0.5 g/day (n = 8)): 1
- Nasopharyngitis, percent of subjects ([2]; 0.5 g/day (n = 8)): (13%)
- Nausea, number of subjects ([2]; 0.5 g/day (n = 8)): 1
- Nausea, percent of subjects ([2]; 0.5 g/day (n = 8)): (13%)
- Number of subjects experiencing any adverse event ([2]; 0.5 g/day (n = 8)): 8
- Palpitations, number of subjects ([2]; 0.5 g/day (n = 8)): 1
- Palpitations, percent of subjects ([2]; 0.5 g/day (n = 8)): (13%)
- Procedural pain, number of subjects ([2]; 0.5 g/day (n = 8)): 1
- Procedural pain, percent of subjects ([2]; 0.5 g/day (n = 8)): (13%)
- Rash, number of subjects ([2]; 0.5 g/day (n = 8)): 1
- Rash, percent of subjects ([2]; 0.5 g/day (n = 8)): (13%)
- Sensation of heaviness, number of subjects ([2]; 0.5 g/day (n = 8)): 1
- Sensation of heaviness, percent of subjects ([2]; 0.5 g/day (n = 8)): (13%)
- Sleep disorder, number of subjects ([2]; 0.5 g/day (n = 8)): 1
- Sleep disorder, percent of subjects ([2]; 0.5 g/day (n = 8)): (13%)
- Syncope vasovagal, number of subjects ([2]; 0.5 g/day (n = 8)): 0
- Tenderness, number of subjects ([2]; 0.5 g/day (n = 8)): 0
- Thermal burn, number of subjects ([2]; 0.5 g/day (n = 8)): 0
- Urine output increased, number of subjects ([2]; 0.5 g/day (n = 8)): 1
- Urine output increased, percent of subjects ([2]; 0.5 g/day (n = 8)): (13%)
- Vomiting, number of subjects ([2]; 0.5 g/day (n = 8)): 1
- Vomiting, percent of subjects ([2]; 0.5 g/day (n = 8)): (13%)
- serum creatinine of one subject ([2]; day 14 (drug stopped)): 151 µmol/L
- serum creatinine of one subject ([2]; day 21 (normalization, drug restarted)): 126 µmol/L
- serum creatinine of one subject ([2]; day 28 (relapse)): 154 µmol/L
- serum creatinine of one subject ([2]; end of study follow up visit): 116 µmol/L
- Abdominal distension, number of subjects ([2]; 2.0 g/day (n = 9)): 0
- Abdominal pain lower, number of subjects ([2]; 2.0 g/day (n = 9)): 0
- Any adverse event, percent of subjects ([2]; 2.0 g/day (n = 9)): (100%)
- Application site haematoma, number of subjects ([2]; 2.0 g/day (n = 9)): 1
- Application site haematoma, percent of subjects ([2]; 2.0 g/day (n = 9)): (11%)
- Arthralgia, number of subjects ([2]; 2.0 g/day (n = 9)): 0
- Back pain, number of subjects ([2]; 2.0 g/day (n = 9)): 0
- Blood creatinine increased, number of subjects ([2]; 2.0 g/day (n = 9)): 0
- Constipation, number of subjects ([2]; 2.0 g/day (n = 9)): 1
- Constipation, percent of subjects ([2]; 2.0 g/day (n = 9)): (11%)
- Cough, number of subjects ([2]; 2.0 g/day (n = 9)): 1
- Cough, percent of subjects ([2]; 2.0 g/day (n = 9)): (11%)
- Decreased Appetite, number of subjects ([2]; 2.0 g/day (n = 9)): 0
- Diarrhoea, number of subjects ([2]; 2.0 g/day (n = 9)): 2
- Diarrhoea, percent of subjects ([2]; 2.0 g/day (n = 9)): (22%)
- Dizziness, number of subjects ([2]; 2.0 g/day (n = 9)): 1
- Dizziness, percent of subjects ([2]; 2.0 g/day (n = 9)): (11%)
- Dry eye, number of subjects ([2]; 2.0 g/day (n = 9)): 0
- Dysphonia, number of subjects ([2]; 2.0 g/day (n = 9)): 1
- Dysphonia, percent of subjects ([2]; 2.0 g/day (n = 9)): (11%)
- Epistaxis, number of subjects ([2]; 2.0 g/day (n = 9)): 0
- Erythema, number of subjects ([2]; 2.0 g/day (n = 9)): 0
- Eye pain, number of subjects ([2]; 2.0 g/day (n = 9)): 0
- Fall, number of subjects ([2]; 2.0 g/day (n = 9)): 0
- Fatigue, number of subjects ([2]; 2.0 g/day (n = 9)): 0
- Headache, number of subjects ([2]; 2.0 g/day (n = 9)): 1
- Headache, percent of subjects ([2]; 2.0 g/day (n = 9)): (11%)
- Insomnia, number of subjects ([2]; 2.0 g/day (n = 9)): 0
- Joint stiffness, number of subjects ([2]; 2.0 g/day (n = 9)): 0
- Lethargy, number of subjects ([2]; 2.0 g/day (n = 9)): 0
- Limb injury, number of subjects ([2]; 2.0 g/day (n = 9)): 1
- Limb injury, percent of subjects ([2]; 2.0 g/day (n = 9)): (11%)
- Mass, number of subjects ([2]; 2.0 g/day (n = 9)): 0
- Migraine, number of subjects ([2]; 2.0 g/day (n = 9)): 0
- Muscle spasms, number of subjects ([2]; 2.0 g/day (n = 9)): 0
- Muscular weakness, number of subjects ([2]; 2.0 g/day (n = 9)): 0
- Nasopharyngitis, number of subjects ([2]; 2.0 g/day (n = 9)): 4
- Nasopharyngitis, percent of subjects ([2]; 2.0 g/day (n = 9)): (44%)
- Nausea, number of subjects ([2]; 2.0 g/day (n = 9)): 0
- Number of subjects experiencing any adverse event ([2]; 2.0 g/day (n = 9)): 9
- Palpitations, number of subjects ([2]; 2.0 g/day (n = 9)): 0
- Procedural pain, number of subjects ([2]; 2.0 g/day (n = 9)): 0
- Rash, number of subjects ([2]; 2.0 g/day (n = 9)): 0
- Sensation of heaviness, number of subjects ([2]; 2.0 g/day (n = 9)): 0
- Sleep disorder, number of subjects ([2]; 2.0 g/day (n = 9)): 0
- Syncope vasovagal, number of subjects ([2]; 2.0 g/day (n = 9)): 1
- Syncope vasovagal, percent of subjects ([2]; 2.0 g/day (n = 9)): (11%)
- Tenderness, number of subjects ([2]; 2.0 g/day (n = 9)): 0
- Thermal burn, number of subjects ([2]; 2.0 g/day (n = 9)): 1
- Thermal burn, percent of subjects ([2]; 2.0 g/day (n = 9)): (11%)
- Urine output increased, number of subjects ([2]; 2.0 g/day (n = 9)): 0
- Vomiting, number of subjects ([2]; 2.0 g/day (n = 9)): 0
- dose-limiting toxicities [2, 3]: no dose-limiting toxicities
- serious adverse events [2, 3]: no serious adverse events
